Assay results published in patent US4980377A, “1-(aminophenyl)-2-aminopropanone derivatives” (Laboratoire L. Lafon, priority 1984, dated 1990).
Entries after “also recorded” stand apart in the source; their conditions may differ. Structures can show the parent of a compound that is named as a salt.

Key:
[1] = system: mice; assay: Intergroup aggressiveness; type: in vivo, mouse; conditions: i.p.
Experimental: After they have stayed for 3 weeks in the two halves of a cage divided by an opaque partition, groups of 3 mice receive CRL 41 153. Half an hour later, the two groups from the same cage are brought together by removal of the partition, and the number of fights which occur in 10 minutes is noted.

[2] = system: dogs; assay: Cardiovascular study in anesthetized dogs; type: in vivo, dog; conditions: anesthetized dogs
Method in brief: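 Nembutal-anaesthetized dogs (~14 kg) given CRL 41 194 (n=2) or CRL 41 221 (n=4) intraduodenally at successive 0.1, 0.5, 1, 2.5, 5 and 10 mg/kg doses. Blood pressure, heart rate, femoral and vertebral flow, rectal temperature measured; skin colour observed, plus bile colour (CRL 41 194).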

[3] = system: rats; assay: Overall behavior and reactivities in rats; type: in vivo, rat; conditions: i.p.
Experimental: In the neuropsychopharmacological study which follows, a solution of CRL 41 153 in distilled water (pH 1.5) was administered intraperitoneally in a volume of 20 ml/kg to male mice and 5 ml/kg to male rats.
Groups of three animals are observed before and then 0.25 hour, 0.50 hour, 1 hour, 2 hours, 3 hours and 24 hours after the administration of CRL 41 153.

[4] = system: mice; assay: Interaction with reserpine; type: in vivo, mouse; conditions: i.p.
Experimental: Four hours after the intraperitoneal injection of 2.5 mg/kg of reserpine, groups of 6 mice receive CRL 41 153.

SMILES: CC(C)NC(C)C(=O)c1ccc(N)cc1 (centres unmarked) [CRL 41 153, 1-(4-aminophenyl)-2-isopropylaminopropanone dihydrochloride]
- Number of fights / intergroup aggressiveness [1]: at a dose of 8 mg/kg, CRL 41 153 reduces the number of fights
- Effect of propanolol or atenolol on the action of the product [2]: The increase in the femoral and vertebral flows is suppressed by propanolol
- Effects of isoprenaline on the blood pressure [2]: does not modify the effects of isoprenaline on the blood pressure
- Reflex bradycardia caused by hypertension [2]: The reflex bradycardia caused by hypertension is converted to tachycardia
- α-adrenergic stimulant effect [2]: moderate α-adrenergic stimulant effect
- Blood flow through the femoral artery ([2]; oral, 2.5 to 5 mg/kg): increases the blood flow through the femoral artery
- Blood flow through the vertebral artery ([2]; oral, 2.5 to 5 mg/kg): increases the blood flow through the femoral artery and the blood flow through the vertebral artery at doses of 2.5 to 5 mg/kg
- Observed symptoms ([3]; 0.25 mg/kg): no particular symptoms
- Observed symptoms ([3]; 1 mg/kg): mydriasis for 1 hour, reaching its maximum value 1 hour after administration
- Hyperthermia (maximum temperature change) ([3]; 4 mg/kg, 0.5 hour after administration): +1.9 °C
- Observed symptoms ([3]; 4 mg/kg, dihydrochloride): excitation 0.5 hour after administration and stereotypies for 2 hours; also recorded: hyperthermia for 3 hours; also recorded: mydriasis for 2 hours, reaching its maximum value 0.5 hour after administration
- Observed symptoms ([3]; 16 mg/kg, dihydrochloride): excitation 0.5 hour after administration; also recorded: stereotypies for 3 hours; also recorded: an increase in the fear reaction for 3 hours; also recorded: mydriasis for 3 hours, at a maximum 0.5 hour after administration
- Effect on hypothermia induced by reserpine [4]: as from a dose of 0.5 mg/kg, CRL 41 153 strongly opposes tbe hypothermia
- Effect on ptosis induced by reserpine [4]: as from a dose of 0.5 mg/kg, CRL 41 153 strongly opposes tbe hypothermia and ptosis induced by reserpine
